Measured values reported in PubChem BioAssay AID389 (SGCOxCompounds, 2006).

Molecular target: Serine/threonine-protein kinase PAK 4 (Homo sapiens) (UniProt O96013)
Test: compound-induced PAK4 thermal stabilization – biophysical, human, DSF, SYPRO orange (AID 389)
Conditions: recombinant PAK4 DSF thermal shift, at 10 µM, protein 2 µM, buffer 10 mM HEPES, pH 7.5, NaCl 150 mM, hits give high values

Serine/threonine-protein kinase PAK 4 (Homo sapiens), sequence (O96013 whole entry, looked up): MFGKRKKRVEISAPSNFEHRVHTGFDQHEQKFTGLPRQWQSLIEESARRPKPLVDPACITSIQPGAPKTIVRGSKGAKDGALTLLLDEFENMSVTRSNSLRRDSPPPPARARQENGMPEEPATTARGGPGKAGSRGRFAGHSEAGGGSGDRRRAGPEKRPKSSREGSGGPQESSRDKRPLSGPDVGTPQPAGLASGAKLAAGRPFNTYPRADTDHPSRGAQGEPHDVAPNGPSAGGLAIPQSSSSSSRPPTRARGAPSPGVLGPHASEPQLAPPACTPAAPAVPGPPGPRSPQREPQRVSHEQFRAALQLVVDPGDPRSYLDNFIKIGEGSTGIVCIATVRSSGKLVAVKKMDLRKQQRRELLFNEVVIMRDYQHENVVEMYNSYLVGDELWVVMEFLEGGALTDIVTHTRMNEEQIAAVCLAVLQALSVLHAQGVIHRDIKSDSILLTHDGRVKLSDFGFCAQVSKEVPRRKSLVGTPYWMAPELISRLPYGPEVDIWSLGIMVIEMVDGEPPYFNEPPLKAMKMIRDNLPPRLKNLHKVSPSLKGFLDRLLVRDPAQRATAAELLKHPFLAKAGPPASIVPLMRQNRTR

Compound | Tm shift [Celsius]
O=C1Cc2c([nH]c3ccc(Br)cc23)-c2ccccc2N1 | 4.62
CC(O)(O)C1(O)C[C@@H]2O[C@@]1(C)n1c3ccccc3c3c4c(c5c6ccccc6n2c5c31)C(=O)NC4 (stereo partly drawn) | 3.9
O=C1NC(=O)c2c1c1c3ccccc3n3c1c1c2c2ccccc2n1[C@@H]1CCC3O1 | 4.92
CC(C)C(CO)Nc1nc(Nc2cccc(Cl)c2)c2ncn(C(C)C)c2n1 (stereo not drawn) | 4.7
Nc1nc(Nc2ccc(S(N)(=O)=O)cc2)nn1C(=S)Nc1c(F)cccc1F | 6.03
N=C(N)SCCCn1cc(C2=C(c3c[nH]c4ccccc34)C(=O)NC2=O)c2ccccc21 | 3.43
Cn1cc(/C=C2\C(=O)Nc3ccc(S(N)(=O)=O)cc32)c2ccccc21 | 3.69
NC(=O)Nc1sc(-c2ccccc2)cc1C(N)=O | 4.28
O=C(c1ccc(Nc2nccc(-c3cc4ccccc4s3)n2)cc1)N1CCC(N2CCCC2)CC1 | 3.23
OCC(O)CCO/N=C1/C(c2c(O)[nH]c3ccccc23)=Nc2ccccc21 (stereo not drawn) | 4.7
COc1cc(/C=C/C(=O)CC(=O)/C=C/c2ccc(O)c(OC)c2)ccc1O | 3.34
O=C1NCc2c1c1c3ccccc3[nH]c1c1[nH]c3ccccc3c21 | 3.8
NS(=O)(=O)c1ccc(Nc2nc(OCC3CCCCC3)c3[nH]cnc3n2)cc1 | 3.8
CCN(CC)CCNC(=O)c1c(C)[nH]c(/C=C2\C(=O)Nc3ccc(Cl)cc32)c1C | 6.4
CCn1cnc2c(Nc3cccc(Cl)c3)nc(N[C@@H]3CCCC[C@@H]3N)nc21 | 6.44
CC(C)n1cnc2c(Nc3cccc(Cl)c3)nc(NCCO)nc21 | 3.7
Clc1ccc(-c2cnc3ccc(NC4CCOCC4)nn23)cc1 | 3.1
Cc1cc(Nc2nc(-c3ccccc3)nc3ccccc23)n[nH]1 | 5.9
NCCCn1cc(C2=C(c3c[nH]c4ccccc34)C(=O)NC2=O)c2ccccc21 | 4.27
O=Nc1c(-c2c(O)[nH]c3ccc(I)cc23)[nH]c2ccccc12 | 3.73
O=c1[nH]c(O)c2c1c1c3ccccc3nc1n1cncc21 | 3.8
N#CCCc1ccc2c(c1)-c1[nH]c3ccc(-n4oo4)cc3c1CC(=O)N2 | 3.68
NCCNc1ncc(C(N)=O)c(Nc2cccc(C(F)(F)F)c2)n1 | 5.9
